The supplement of paper PMC10307832

Tests used:
Assay in all cases: relative viability (nuclei count vs DMSO), 5 days (fraction); higher = more cells survive
Foretinib = compound: COc1cc2c(Oc3ccc(NC(=O)C4(C(=O)Nc5ccc(F)cc5)CC4)cc3F)ccnc2cc1OCCCN1CCOCC1 [Foretinib] (anchor plate); conditions: 0.25 µM
Outline: (§1)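 Only plates meeting two conditions passed: control CV below 25% and at least one doubling. Lung cancer cell lines, kept overnight at 37 °C in 1536-well plates, were pinned with five library-drug doses (not always all listed) √10 apart on vehicle-anchored plates and grown 5 days without medium change. A one-step fix, permeabilisation and Hoechst stain preceded 4× imaging and MetaXpress nuclear counting. Viability equals treated-well nuclei divided by vehicle-well nuclei, as the median over plates.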

[1] = compound: O=S(=O)(c1ccccc1)N(CC(F)(F)F)c1ccc(C(O)(C(F)(F)F)C(F)(F)F)cc1
Outline: as §1

RO-3306 + Palbociclib = compound: C1=CC2=C(C=CC(=C2)C=C3C(=O)NC(=NCC4=CC=CS4)S3)N=C1 [RO-3306] + CC(=O)c1c(C)c2cnc(Nc3ccc(N4CCNCC4)cn3)nc2n(C2CCCC2)c1=O [Palbociclib] (partner 0.5 µM)
Outline: (§2)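 Nuclei were stained with Hoechst during a one-step fixation (final 0.05% Triton X-100, 1% formaldehyde, 1 ug/ml Hoechst) carried out 5 days after dosing, then counted on 4× images. The cells, lung cancer lines in 1536-well plates, had been dosed by pin tool the day after seeding with one drug alone or a fixed anchor-drug dose plus five library-drug doses (not always all listed) in √10 steps. Relative viability is the nuclei count in treated wells divided by that in vehicle wells, and each value is the median of duplicate plates.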

RO-3306 + Dasatinib = compound: C1=CC2=C(C=CC(=C2)C=C3C(=O)NC(=NCC4=CC=CS4)S3)N=C1 [RO-3306] + Cc1nc(Nc2ncc(C(=O)Nc3c(C)cccc3Cl)s2)cc(N2CCN(CCO)CC2)n1 [Dasatinib] (partner 0.075 µM)
Outline: as §2

[2] = compound: O=S(=O)(c1ccccc1)N(CC(F)(F)F)c1ccc(C(O)(C(F)(F)F)C(F)(F)F)cc1 + CC1(C)CCC(c2ccc(Cl)cc2)=C(CN2CCN(c3ccc(C(=O)NS(=O)(=O)c4ccc(N[C@H](CCN5CCOCC5)CSc5ccccc5)c(S(=O)(=O)C(F)(F)F)c4)cc3)CC2)C1 [Navitoclax] (partner 0.5 µM)
Outline: as §2

Cell Line	relative viability (Foretinib)	relative viability ([1]; 0.8 µM)	relative viability ([1]; 2.53 µM)	relative viability ([1]; 8 µM)	relative viability (RO-3306 + Palbociclib; first compound 0.01 µM)	relative viability (RO-3306 + Palbociclib; first compound 0.03162 µM)	relative viability (RO-3306 + Palbociclib; first compound 0.1 µM)	relative viability (RO-3306 + Palbociclib; first compound 0.3162 µM)	relative viability (RO-3306 + Palbociclib; first compound 1 µM)	relative viability (RO-3306 + Dasatinib; first compound 0.01 µM)	relative viability (RO-3306 + Dasatinib; first compound 0.03162 µM)	relative viability (RO-3306 + Dasatinib; first compound 0.1 µM)	relative viability (RO-3306 + Dasatinib; first compound 0.3162 µM)	relative viability (RO-3306 + Dasatinib; first compound 1 µM)	relative viability ([2]; first compound 0.8 µM)	relative viability ([2]; first compound 2.53 µM)	relative viability ([2]; first compound 8 µM)
HOP-62	1.12	1.02	0.923	0.837	0.519	0.481	0.416	0.43	0.446	0.709	0.516	0.633	0.757	0.504	1.19	0.999	1.09
EKVX	0.886	0.93	0.893	0.836	0.346	0.37	0.332	0.447	0.393	0.349		0.514	0.55	0.492	0.939	0.918	0.868
NCI-H1666	0.977	0.939	0.925	0.827	0.734	0.631	0.603	0.616	0.609	0.794	0.724	0.772	0.795	0.698	0.756	0.882	0.99
NCI-H2170	1.01	1.08	0.964	0.913	0.416	0.398	0.372	0.433	0.378	0.492	0.585	0.57	0.621	0.456	0.715	0.681	0.547
201T	1.16	1.02	0.928	1.06	0.31	0.342	0.325	0.36	0.367	0.584	0.588	0.571	0.529	0.517	1.18	1.18	1.22
COR-L 105	1.07	0.947	0.786	0.918	0.392	0.408	0.412	0.404	0.385	0.3	0.302	0.271	0.344	0.335	0.691	0.668	0.823
NCI-H1755	0.915	1.02	0.982	0.928	0.421	0.474	0.48	0.417	0.45	0.46	0.417	0.441	0.366	0.411	1.01	0.909	0.924
NCI-H520	0.745	1.1	0.963	0.982	0.254	0.224	0.235	0.261	0.267	0.168	0.195	0.178	0.195	0.162	0.943	1.3	1.38
NCI-H1650	1.22	0.929	0.897	0.936	0.423	0.246	0.285	0.321	0.274	0.326	0.284	0.311	0.33	0.291	1.39	1.07	1.06
NCI-H1793	0.741	0.758	0.747	0.785	0.222		0.279	0.296	0.388	0.341	0.345	0.324	0.451	0.353	0.471	0.261	0.301
SK-LU-1	0.785	1.16	1.08	0.992	0.365	0.366	0.382	0.336	0.355	0.14	0.177	0.18	0.198	0.151	1.18	0.865	0.56
NCI-H441	0.994	1.12	0.896	0.941	0.197	0.179	0.182	0.204	0.157	0.499	0.392	0.657	0.485	0.709	0.411	0.604	0.613
EPLC-272H	0.723	0.942	0.929	0.982	0.254		0.342	0.304	0.302	0.365	0.193	0.384	0.237	0.299	1.24	1.08	0.795
HCC-366	0.942	1.12	0.979	0.983	0.531	0.395	0.381	0.382	0.316	0.794	0.565	0.677	0.668	0.652	1.19	1.03	1.03
PC-14	0.951	1.03	0.832	0.83	0.654	0.4	0.494	0.538	0.577	0.239	0.359	0.232	0.243	0.212	1.14	1.11	0.412
LU99A	0.827	1.09	0.885	0.875	0.438	0.418	0.425	0.374	0.386	0.606	0.581	0.553	0.507	0.553	1.02	0.694	0.776
ChaGo-K-1	0.921	1.14	0.998	1.06	1.04	0.854	0.911	0.871	0.578	0.63	0.624	0.569	0.622	0.349	0.978	1.02	1.59
NCI-H2087	1.06	1.11	0.993	0.909	0.226	0.233	0.171	0.238	0.197	1.01	0.541	0.914	0.869	1.04	1.03	0.942	0.916
BEN	0.668	0.991	0.895	0.87	0.49	0.438	0.458	0.473	0.476	0.381	0.324	0.297	0.307	0.338	0.0593	0.0841	0.0468
NCI-H2405	1.01	1.03	0.987	0.945	0.553	0.45	0.562	0.518	0.494	0.199	0.493	0.173	0.225	0.463	1.11	1.01	0.896
